The record followed here is USRE48461E1, “Modulation of androgen receptor expression” (Ionis Pharmaceuticals, Inc., priority 2012, dated 2021).

Oligonucleotides are written 5' to 3', each unit as a sugar letter and its base; * is a phosphorothioate linkage, no mark a phosphodiester; rarer units and linkages stand in square brackets, end groups in braces. Plain capitals give the bases only. k = constrained ethyl (cEt); d = 2'-deoxy (DNA)

One data set relates to AR mRNA. Put plainly: AR mRNA levels in LMR20 cells (with/without DHT or R1881). It counts as cell-based, human. The conditions noted are these: for AR mRNA levels (% baseline value) after treatment with DHT / AR mRNA levels (% baseline value) after treatment with R1881 / AR mRNA levels (% baseline value) of cells without AR agonist treatment: LMR20 cells; for AR mRNA levels (% baseline value) after treatment with DHT: DHT 10 nM 72 hrs; for AR mRNA levels (% baseline value) after treatment with R1881: R1881 10 nM 72 hrs; for AR mRNA levels (% baseline value) of cells without AR agonist treatment: no AR agonist. Here is the method:
LMR20 cells were plated at 1,500 cells per well in phenol red-free medium with CSS.

Another data set relates to LMR20 cells. Put plainly: Proliferation of MDV3100-resistant LMR20 cells (MTT; with R1881 or DHT). The format is cell-based, human. The conditions noted are these: 5 days. Here is the method: LMR20 cells were plated at 1,500 cells per well in phenol red-free medium with charcoal-stripped fetal bovine serum (CSS), to remove any androgens from the medium (Life Technologies). […] The synthetic androgen agonist, R1881, (Takeda, A. N. et al., Mol. Pharmacol. 2007. 71: 473-82) was added on day 1 at 1 nM dose to a set of cells also treated with each of the antisense oligonucleotides. DHT was added on day 1 at a dose of 10 nM to another set of cells also treated with each of the antisense oligonucleotides. […] After a treatment period of 5 days, the proliferative ability of the cancer cells was measured by the standard MTT assay. Results are presented in Table 42 as percent inhibition of proliferation, relative to non-treated cells.

Regarding “GTTGATTTAATGGTTG (all phosphorothioate, sugars by position not given here; further chemistry not fully specified) [ISIS 549458]”, the “AR mRNA levels in LMR20 cells” value in the data set on AR mRNA (with or without DHT/R1881) is on record as “reduced AR mRNA levels in LMR20 cells, treated with or without either AR agonist, in a dose dependent manner relative to the baseline”. Further, the “Percent inhibition of LMR20 cell proliferation” value with LMR20 cells (CSS + DHT, ASO 0.04 μM) amounted to 0%; with LMR20 cells (CSS + DHT, ASO 0.20 μM) it was 25%; with LMR20 cells (CSS + DHT, ASO 1.0 μM), 60%; in the data set on LMR20 cells (CSS + DHT, ASO 5.0 μM) it was 70%; in the data set with LMR20 cells (CSS + R1881, ASO 0.04 μM), 0%; with LMR20 cells (CSS + R1881, ASO 0.20 μM), 22%. Moreover, the “Percent inhibition of LMR20 cell proliferation” value is 59% with LMR20 cells (CSS + R1881, ASO 1.0 μM); 74% in the data set with LMR20 cells (CSS + R1881, ASO 5.0 μM); 0% in the data set on LMR20 cells (CSS, ASO 0.04 μM); 0% in the data set with LMR20 cells (CSS, ASO 0.20 μM); 0% with LMR20 cells (CSS, ASO 1.0 μM); 5% with LMR20 cells (CSS, ASO 5.0 μM). Besides, the LMR20 cell proliferation entry in the data set with LMR20 cells (in the presence of R1881 or DHT, 0.04-5.0 μM) is listed as “significantly inhibited MDV3100-resistant prostate cancer cell proliferation in a dose dependent manner more extensively than ISIS 554221”.
In the case of “549458 (kG*kT*kT*dG*dA*dT*dT*dT*dA*dA*dT*dG*dG*kT*kT*kG) [compound 549458]”, the “AR mRNA levels (% baseline value) after treatment with DHT” value with AR mRNA (ASO 0.04 μM) is 91 % baseline value; with AR mRNA (ASO 0.20 μM) it was 66 % baseline value; in the data set with AR mRNA (ASO 1.0 μM), 34 % baseline value; in the data set with AR mRNA (ASO 5.0 μM), 31 % baseline value. Further, the “AR mRNA levels (% baseline value) after treatment with R1881” value is listed as 88 % baseline value in the data set with AR mRNA (ASO 0.04 μM), 56 % baseline value in the data set with AR mRNA (ASO 0.20 μM), 25 % baseline value in the data set on AR mRNA (ASO 1.0 μM) and 32 % baseline value in the data set with AR mRNA (ASO 5.0 μM). Also, the “AR mRNA levels (% baseline value) of cells without AR agonist treatment” value in the data set on AR mRNA (ASO 0.04 μM) came to 101 % baseline value; in the data set with AR mRNA (ASO 0.20 μM), 75 % baseline value; in the data set with AR mRNA (ASO 1.0 μM) it was 30 % baseline value; with AR mRNA (ASO 5.0 μM) it was 25 % baseline value.
